The values below come from patent publication US9315505B2, “Heterocyclic compounds and uses thereof” (INTELLIKINE LLC, priority 2009, dated 2016).

A value given as a limit tells only on which side of the number the result lay.

In general, IC50 refers to the concentration at which inhibition is half-maximal.

Common to all, as to type: biochemical
In one assay the target is T1, PI3K δ (Homo sapiens, UniProt O00329).
T1 construct: purchased Upstate
As to the kind of experiment: In vitro IC50, PI3K δ (p110δ/p85α inhibition assay). The settings on record: in vitro kinase assay; read-out: IC50(nM) PI3K δ. The procedure: (§1) IC50 values are measured using either a standard TLC assay for lipid kinase activity (described below) or a high-throughput membrane capture assay. Kinase reactions are performed by preparing a reaction mixture containing kinase, inhibitor (2% DMSO final concentration), buffer (25 mM HEPES, pH 7.4, 10 mM MgCl2), and freshly sonicated phosphatidylinositol (100 μg/ml). Reactions are initiated by the addition of ATP containing 10 μCi of γ-32P-ATP to a final concentration 10 or 100 μM and allowed to proceed for 5 minutes at room temperature. For TLC analysis, reactions are then terminated by the addition of 105 μl 1N HCl followed by 160 μl CHCl3:MeOH (1:1). The biphasic mixture is vortexed, briefly centrifuged, and the organic phase is transferred to a new tube using a gel loading pipette tip precoated with CHCl3. This extract is spotted on TLC plates and developed for 3-4 hours in a 65:35 solution of n-propanol:1M acetic acid. The TLC plates are then dried, exposed to a phosphorimager screen (Storm, Amersham), and quantitated.
(§2) Other commercial kits or systems for assaying PI3-K activities are available. The commercially available kits or systems can be used to screen for inhibitors and/or agonists of PI3-Ks including but not limited to PI 3-Kinase α, β, δ, and γ. An exemplary system is PI 3-Kinase (human) HTRF™ Assay from Upstate. […] Briefly, the assay is a time resolved FRET assay that indirectly measures PIP3 product formed by the activity of a PI3-K. The kinase reaction is performed in a microtitre plate (e.g., a 384 well microtitre plate). The total reaction volume is approximately 20 ul per well. In the first step, each well receives 2 ul of test compound in 20% dimethylsulphoxide resulting in a 2% DMSO final concentration. Next, approximately 14.5 ul of a kinase/PIP2 mixture (diluted in 1× reaction buffer) is added per well for a final concentration of 0.25-0.3 ug/ml kinase and 10 uM PIP2. The plate is sealed and incubated for 15 minutes at room temperature. To start the reaction, 3.5 ul of ATP (diluted in 1× reaction buffer) is added per well for a final concentration of 10 uM ATP. The plate is sealed and incubated for 1 hour at room temperature. The reaction is stopped by adding 5 ul of Stop Solution per well and then 5 ul of Detection Mix is added per well. The plate is sealed, incubated for 1 hour at room temperature, and then read on an appropriate plate reader. Data is analyzed and IC50s are generated using GraphPad Prism 5.

Another assay has as its target T2, PI3K γ (Homo sapiens, UniProt P48736).
T2 construct: purchased Sigma
As to the kind of experiment: In vitro IC50, PI3K γ (p110γ inhibition assay). The settings on record: in vitro kinase assay. Here is the method:
as §1, with “Class I PI3-Ks can be either purchased (p110α/p85α, p110β/p85α, p110δ/p85α from Upstate, and p110γ from Sigma) or expressed as previously described (Knight et al., 2004). IC50” for “IC50”, “quantitated. For each compound, kinase activity is measured at 10-12 inhibitor concentrations representing two-fold dilutions from the highest concentration tested (typically, 200 μM).” for “quantitated.”
as §2

For the next assay, the target named is T3, PI3K α (Homo sapiens, UniProt P42336).
T3 construct: purchased Upstate
T3 sequence (P42336 whole entry): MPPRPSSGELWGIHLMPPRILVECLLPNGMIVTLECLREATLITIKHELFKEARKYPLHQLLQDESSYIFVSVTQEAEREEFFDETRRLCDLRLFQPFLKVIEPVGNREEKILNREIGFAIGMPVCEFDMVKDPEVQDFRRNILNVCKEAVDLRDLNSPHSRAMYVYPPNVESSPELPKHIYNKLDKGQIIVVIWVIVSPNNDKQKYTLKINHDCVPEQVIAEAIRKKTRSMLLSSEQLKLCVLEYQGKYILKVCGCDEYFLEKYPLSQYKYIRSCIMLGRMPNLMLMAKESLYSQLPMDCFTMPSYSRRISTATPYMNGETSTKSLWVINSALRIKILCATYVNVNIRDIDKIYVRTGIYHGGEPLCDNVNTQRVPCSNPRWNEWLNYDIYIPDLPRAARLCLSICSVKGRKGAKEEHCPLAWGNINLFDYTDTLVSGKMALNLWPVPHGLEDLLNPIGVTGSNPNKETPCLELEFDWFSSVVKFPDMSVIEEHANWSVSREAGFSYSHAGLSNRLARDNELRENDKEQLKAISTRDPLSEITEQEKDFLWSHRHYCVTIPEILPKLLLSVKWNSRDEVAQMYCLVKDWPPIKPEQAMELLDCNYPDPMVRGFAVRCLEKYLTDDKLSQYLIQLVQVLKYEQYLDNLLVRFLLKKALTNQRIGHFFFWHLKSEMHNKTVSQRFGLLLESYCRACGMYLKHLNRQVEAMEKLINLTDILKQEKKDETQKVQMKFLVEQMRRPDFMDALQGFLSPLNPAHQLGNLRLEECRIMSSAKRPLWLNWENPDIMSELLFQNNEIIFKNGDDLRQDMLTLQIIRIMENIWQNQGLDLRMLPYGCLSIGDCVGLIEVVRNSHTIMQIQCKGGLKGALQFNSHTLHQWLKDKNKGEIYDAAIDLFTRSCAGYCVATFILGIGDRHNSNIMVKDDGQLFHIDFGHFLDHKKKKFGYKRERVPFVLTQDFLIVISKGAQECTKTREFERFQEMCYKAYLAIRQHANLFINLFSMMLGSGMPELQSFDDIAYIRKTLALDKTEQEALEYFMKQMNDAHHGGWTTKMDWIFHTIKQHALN
T3 sequence (P27986 whole entry partner): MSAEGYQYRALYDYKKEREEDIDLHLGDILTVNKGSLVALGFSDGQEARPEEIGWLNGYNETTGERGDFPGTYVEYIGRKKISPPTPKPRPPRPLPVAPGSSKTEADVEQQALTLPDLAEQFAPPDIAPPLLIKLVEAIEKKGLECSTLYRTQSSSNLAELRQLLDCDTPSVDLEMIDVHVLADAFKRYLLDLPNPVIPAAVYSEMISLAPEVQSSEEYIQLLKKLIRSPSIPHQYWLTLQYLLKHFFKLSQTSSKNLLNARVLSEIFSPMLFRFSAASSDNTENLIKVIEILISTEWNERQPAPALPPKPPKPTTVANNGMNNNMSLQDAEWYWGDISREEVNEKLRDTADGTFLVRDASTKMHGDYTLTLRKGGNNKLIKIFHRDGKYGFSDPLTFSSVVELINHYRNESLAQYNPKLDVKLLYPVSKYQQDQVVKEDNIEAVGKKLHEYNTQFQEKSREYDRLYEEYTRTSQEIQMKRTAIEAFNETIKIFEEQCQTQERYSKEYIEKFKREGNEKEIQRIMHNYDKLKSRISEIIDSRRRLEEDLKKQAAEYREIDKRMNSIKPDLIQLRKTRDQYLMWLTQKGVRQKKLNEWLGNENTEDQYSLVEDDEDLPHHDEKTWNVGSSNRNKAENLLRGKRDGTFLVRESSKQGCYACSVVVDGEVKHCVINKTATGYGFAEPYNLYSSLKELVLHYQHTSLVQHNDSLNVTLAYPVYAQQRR
As to the kind of experiment: In vitro IC50, PI3K α (p110α/p85α inhibition assay). The settings on record: in vitro kinase assay; read-out: IC50(nM) PI3K α. The procedure:
as §1, §2

T1 sequence (O00329 whole entry): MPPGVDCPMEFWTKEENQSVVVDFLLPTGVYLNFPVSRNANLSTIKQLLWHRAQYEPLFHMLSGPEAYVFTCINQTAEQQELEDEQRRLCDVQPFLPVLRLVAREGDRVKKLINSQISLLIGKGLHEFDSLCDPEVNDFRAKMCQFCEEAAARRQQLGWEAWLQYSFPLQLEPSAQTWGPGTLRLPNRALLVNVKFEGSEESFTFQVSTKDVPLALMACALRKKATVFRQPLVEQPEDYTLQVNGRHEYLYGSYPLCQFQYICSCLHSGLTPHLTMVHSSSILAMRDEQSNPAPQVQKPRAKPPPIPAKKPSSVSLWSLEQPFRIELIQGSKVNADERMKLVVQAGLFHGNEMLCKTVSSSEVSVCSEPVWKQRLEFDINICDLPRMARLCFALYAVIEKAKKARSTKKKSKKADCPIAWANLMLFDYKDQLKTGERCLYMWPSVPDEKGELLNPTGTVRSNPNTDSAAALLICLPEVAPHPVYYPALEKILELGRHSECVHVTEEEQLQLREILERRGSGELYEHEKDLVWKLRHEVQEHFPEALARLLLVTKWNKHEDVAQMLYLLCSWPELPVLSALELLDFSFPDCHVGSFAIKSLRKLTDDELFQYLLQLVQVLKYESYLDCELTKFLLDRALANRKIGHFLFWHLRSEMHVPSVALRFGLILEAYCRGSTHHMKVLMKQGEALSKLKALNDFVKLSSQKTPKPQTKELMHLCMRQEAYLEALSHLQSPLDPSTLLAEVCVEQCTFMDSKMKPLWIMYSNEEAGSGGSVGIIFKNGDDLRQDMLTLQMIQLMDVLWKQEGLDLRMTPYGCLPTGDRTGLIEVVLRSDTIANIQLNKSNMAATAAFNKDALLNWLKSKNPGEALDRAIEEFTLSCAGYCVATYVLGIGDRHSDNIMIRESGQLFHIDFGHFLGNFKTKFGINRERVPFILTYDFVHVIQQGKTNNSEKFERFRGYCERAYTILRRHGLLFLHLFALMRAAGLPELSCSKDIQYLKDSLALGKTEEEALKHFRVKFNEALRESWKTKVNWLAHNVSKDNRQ
T1 sequence (P27986 whole entry partner): as the sequence (P27986 whole entry partner) above
T2 sequence (P48736 whole entry): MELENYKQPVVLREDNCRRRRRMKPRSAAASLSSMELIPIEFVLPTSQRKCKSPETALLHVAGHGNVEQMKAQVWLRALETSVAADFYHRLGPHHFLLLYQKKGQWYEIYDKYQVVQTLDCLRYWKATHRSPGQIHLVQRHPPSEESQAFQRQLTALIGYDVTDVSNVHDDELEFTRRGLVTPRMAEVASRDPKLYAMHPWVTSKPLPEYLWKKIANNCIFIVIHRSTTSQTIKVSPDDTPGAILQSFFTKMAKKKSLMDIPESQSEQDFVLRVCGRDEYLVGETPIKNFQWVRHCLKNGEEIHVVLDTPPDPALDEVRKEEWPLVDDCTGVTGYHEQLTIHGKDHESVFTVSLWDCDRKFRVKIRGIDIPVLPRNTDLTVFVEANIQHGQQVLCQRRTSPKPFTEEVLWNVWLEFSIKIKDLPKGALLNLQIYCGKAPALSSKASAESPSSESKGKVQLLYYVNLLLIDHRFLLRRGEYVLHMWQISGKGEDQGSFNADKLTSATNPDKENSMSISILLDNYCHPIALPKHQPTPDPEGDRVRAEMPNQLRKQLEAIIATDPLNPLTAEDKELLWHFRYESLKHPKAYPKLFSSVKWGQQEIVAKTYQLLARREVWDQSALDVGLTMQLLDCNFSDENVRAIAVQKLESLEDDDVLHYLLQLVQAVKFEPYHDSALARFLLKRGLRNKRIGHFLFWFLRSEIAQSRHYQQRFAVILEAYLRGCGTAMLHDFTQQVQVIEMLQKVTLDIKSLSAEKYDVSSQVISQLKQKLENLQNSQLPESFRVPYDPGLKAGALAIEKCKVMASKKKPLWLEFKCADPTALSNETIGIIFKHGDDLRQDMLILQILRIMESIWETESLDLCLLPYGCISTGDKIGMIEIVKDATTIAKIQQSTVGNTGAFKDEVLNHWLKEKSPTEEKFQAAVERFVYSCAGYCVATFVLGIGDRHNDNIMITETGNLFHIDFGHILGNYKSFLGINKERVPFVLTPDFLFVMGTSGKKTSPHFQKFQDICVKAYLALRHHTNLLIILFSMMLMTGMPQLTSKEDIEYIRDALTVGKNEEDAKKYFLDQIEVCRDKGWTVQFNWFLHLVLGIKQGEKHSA

Regarding `Cc1cccc2cc(C(C)Nc3ncnc4[nH]cnc34)nc(OC3CCN(C(C)C)CC3)c12` (stereo not drawn) [Compound 21], the IC50 at PI3K δ was under 100 nM; on PI3K γ, over 10000 nM; at PI3K α, under 10000 nM.
As to `Cc1cccc2cc(Cn3nc(-c4ccc5oc(N)nc5c4)c4c(N)ncnc43)nc(Oc3ccccc3)c12` [Compound 34], the IC50 at PI3K δ is under 10000 nM.
In the case of `CC(Nc1ncnc2[nH]cnc12)c1cc2cccc(Cl)c2c(CCN2CCN(S(C)(=O)=O)CC2)n1` (stereo not drawn) [Compound 80], the IC50 was under 100 nM on PI3K δ, under 10000 nM on PI3K γ and over 10000 nM on PI3K α.
For the compound `CC(Nc1ncnc2[nH]cnc12)c1cc2ccccc2c(OC2CCN(C)CC2)n1` (stereo not drawn) [Compound 23], the IC50 at PI3K δ is under 1000 nM; on PI3K γ it was over 10000 nM; on PI3K α it was over 10000 nM.
As for `Cc1cccc2cc(C(C)Nc3ncnc4[nH]cnc34)nc(N3CCN(C)CC3)c12` (stereo not drawn) [Compound 19], the IC50 at PI3K δ was under 100 nM; at PI3K γ, over 10000 nM.
For the compound `C[C@H](Nc1ncnc2[nH]cnc12)c1cc2cccc(Cl)c2c(CCN2CCC(F)(F)C2)n1` [Compound 91], the IC50 on PI3K δ is under 100 nM; at PI3K γ, under 10000 nM; on PI3K α it was under 10000 nM.
`Cc1cccc2cc(Cn3nc(-c4cn[nH]c4)c4c(N)ncnc43)nc(OC(C)C)c12` [Compound 30]: the half-maximal inhibitory concentration (IC50) on PI3K δ is under 10000 nM.
Take `C[C@H](Nc1ncnc2[nH]cnc12)c1cc2cccc(Cl)c2c(N2CCN(S(C)(=O)=O)C[C@H]2C)n1` [Compound 86]: the IC50 on PI3K δ is under 1000 nM; on PI3K γ it was under 1000 nM; on PI3K α, over 10000 nM.
Consider `Cc1cccc2cc(C(C)Nc3ncnc4[nH]cnc34)nc(OC3CCN(S(C)(=O)=O)CC3)c12` (stereo not drawn) [Compound 48], for which the IC50 is under 100 nM on PI3K δ, under 10000 nM against PI3K γ and over 10000 nM on PI3K α.
Consider `C[C@H](Nc1ncnc2[nH]cnc12)c1nc(N2CCOCC2)c2c(Cl)cccc2n1` [Compound 93], for which the IC50 at PI3K δ is under 10000 nM; against PI3K γ it was over 10000 nM; at PI3K α, over 10000 nM.
On to `Cc1cccc2cc(C(C)Nc3ncnc4[nH]cnc34)nc(OC(C)C)c12` (stereo not drawn) [Compound 32], for which, on PI3K δ, the IC50 is under 10000 nM.
With `Cc1cccc2cc(C(C)Nc3ncnc4[nH]cnc34)nc(NC3CCN(C)CC3)c12` (stereo not drawn) [Compound 41], the IC50 on PI3K δ was under 1000 nM; against PI3K γ, over 10000 nM.
On to `CC(=O)Nc1nc2ccc(-c3nn(Cc4cc5cccc(C)c5c(OC(C)C)n4)c4ncnc(N)c34)cc2s1` [Compound 28], for which, at PI3K δ, the IC50 is over 10000 nM.
Regarding `Cc1cccc2cc(Cn3nc(-c4cn[nH]c4)c4c(N)ncnc43)nc(N3CCN(C)CC3)c12` [Compound 18], the IC50 at PI3K δ is under 100 nM; at PI3K α, under 10000 nM.
On to `Cc1cccc2cc(C(Nc3ncnc4[nH]cnc34)c3ccccc3)ncc12` (stereo not drawn) [Compound 33], for which the IC50 at PI3K δ was under 10000 nM.
In the case of `C[C@@H](Nc1ncnc2[nH]cnc12)c1cc2cccc(Cl)c2c(N2CCN(S(C)(=O)=O)CC2)n1` [Compound 83], the IC50 at PI3K δ, against PI3K γ and at PI3K α was over 10000 nM each time.
For the compound `C[C@H](Nc1ncnc2[nH]cnc12)c1cc2cccc(Cl)c2c(CCN2CCCC2)n1` [Compound 90], the IC50 at PI3K δ is under 100 nM; at PI3K γ, under 10000 nM; on PI3K α, under 10000 nM.
`C[C@H](Nc1ncnc2[nH]cnc12)c1nc(N2CCCC2)c2c(Cl)cccc2n1` [Compound 92]: the half-maximal inhibitory concentration (IC50) on PI3K δ is under 1000 nM; against PI3K γ, over 10000 nM; at PI3K α, over 10000 nM.
In the case of `Cc1cccc2cc(C(C)Nc3ncnc4[nH]cnc34)nc(OC3CCOCC3)c12` (stereo not drawn) [Compound 40], the IC50 on PI3K δ was under 1000 nM; at PI3K γ it was over 10000 nM.
As to `CC(Nc1ncnc2[nH]cnc12)c1cc2ccccc2c(OC2CCNCC2)n1` (stereo not drawn) [Compound 22], the IC50 at PI3K δ was under 10000 nM.
In the case of `C[C@@H](Nc1ncnc2[nH]cnc12)c1cc2cccc(Cl)c2c(OC2CCN(S(C)(=O)=O)CC2)n1` [Compound 84], the IC50 on PI3K δ was under 1000 nM; against PI3K γ it was over 10000 nM; on PI3K α, over 10000 nM.
For the compound `C[C@H](Nc1ncnc2[nH]cnc12)c1cc2cccc(Cl)c2c(OCCN2CCCC2)n1` [Compound 72], the IC50 is under 100 nM on PI3K δ, under 1000 nM on PI3K γ and under 10000 nM at PI3K α.
The like results for `C[C@H](Nc1ncnc2[nH]cnc12)c1nc(N2CCN(S(C)(=O)=O)CC2)c2c(Cl)cccc2n1` [Compound 94] were, in that order, under 1000 nM, under 10000 nM and over 10000 nM.
With `C[C@H](Nc1ncnc2[nH]cnc12)c1cc2cccc(Cl)c2c(-c2cccnc2)n1` [Compound 82], the figures for the IC50 at PI3K δ, against PI3K γ and at PI3K α were under 100 nM, under 1000 nM and over 10000 nM, respectively.
Turning to `CC(Nc1ncnc2[nH]cnc12)c1cc2ccccc2c(OC2CCN(S(C)(=O)=O)CC2)n1` (stereo not drawn) [Compound 53], the results for the half-maximal inhibitory concentration (IC50) on PI3K δ, at PI3K γ and on PI3K α were under 1000 nM, over 10000 nM and over 10000 nM, respectively.
Regarding `Cc1cccc2cc(Cn3nc(-c4cn[nH]c4)c4c(N)ncnc43)nc(N3CCCC3)c12` [Compound 27], the IC50 on PI3K δ is under 100 nM; on PI3K γ, under 1000 nM; on PI3K α, under 10000 nM.
On the same counts, the results for `CC(=O)N1CCN(CCc2nc(C(C)Nc3ncnc4[nH]cnc34)cc3cccc(Cl)c23)CC1` (stereo not drawn) [Compound 81] are under 1000 nM, over 10000 nM and over 10000 nM.
As for `CC(=O)N1CCC(Oc2nc(C(C)Nc3ncnc4[nH]cnc34)cc3ccccc23)CC1` (stereo not drawn) [Compound 52], the IC50 at PI3K δ is under 1000 nM; against PI3K γ, over 10000 nM; on PI3K α, over 10000 nM.
As for `C[C@H](Nc1ncnc2[nH]cnc12)c1cc2cccc(Cl)c2c(N2CCN(S(C)(=O)=O)C[C@@H]2C)n1` [Compound 85], the IC50 was under 100 nM at PI3K δ, under 100 nM against PI3K γ and under 1000 nM at PI3K α.
As to `Cc1cccc2cc(C(C)Nc3ncnc4[nH]cnc34)nc(Oc3ccccc3)c12` (stereo not drawn) [Compound 24], at PI3K δ, the IC50 was under 1000 nM.
For `CCN(Cc1cc2cccc(C)c2c(OC2CCN(C(C)C)CC2)n1)c1ncnc2[nH]cnc12` [Compound 11], the IC50 at PI3K δ is under 10000 nM; against PI3K γ, over 10000 nM; on PI3K α, over 10000 nM.
Regarding `Cc1cccc2cc(C(C)Nc3ncnc4[nH]cnc34)nc(OCC3CCN(C(C)C)CC3)c12` (stereo not drawn) [Compound 51], the half-maximal inhibitory concentration (IC50) is under 100 nM on PI3K δ, over 10000 nM against PI3K γ and under 10000 nM at PI3K α.
With `C[C@H](Nc1ncnc2[nH]cnc12)c1nc(OCCN2CCCC2)c2c(Cl)cccc2n1` [Compound 95], the 50% inhibitory concentration (IC50) is under 100 nM on PI3K δ, under 10000 nM at PI3K γ and under 10000 nM on PI3K α.
Take `CC(Nc1ncnc2[nH]cnc12)c1cc2cccc(Cl)c2c(CCN2CCOCC2)n1` (stereo not drawn) [Compound 78]: the IC50 at PI3K δ was under 100 nM; against PI3K γ, under 10000 nM; at PI3K α, over 10000 nM.
For the compound `C[C@H](Nc1ncnc2[nH]cnc12)c1cc2ccccc2c(N2CCN(S(C)(=O)=O)CC2)n1` [Compound 77], the IC50 on PI3K δ was under 1000 nM; against PI3K γ, over 10000 nM; at PI3K α, over 10000 nM.
As for `Cc1cccc2cc(C(C)Nc3ncnc4[nH]cnc34)nc(NC3CCOCC3)c12` (stereo not drawn) [Compound 43], the IC50 on PI3K δ is under 10000 nM; against PI3K γ, over 10000 nM.
Regarding `Cc1cccc2cc(Cn3nc(-c4ccc5oc(N)nc5c4)c4c(N)ncnc43)nc(OC(C)C)c12` [Compound 29], the IC50 at PI3K δ is over 10000 nM.
